Laboratory results as given in article PMC12261233, “Photoactivatable Cyclometalated Ir(III) Compound Penetrates the Blood-Brain Barrier in 3D Spheroidal and Advanced 3D Organoid Models of Inherently Resistant and Aggressive Brain Tumors” (ACS Pharmacology & Translational Science, 2025).
Read-outs that look alike come from different tables or passages of the source.

How the values were obtained:
Type in all cases: cell-based, human
U87MG cells = experiment: Antiproliferative activity, 2D monolayer, SRB assay; conditions: for PI (phototoxicity index) 2D: IC50 dark / IC50 420 nm irradiated; for IC50: U87MG 2D monolayer, 90 min treatment, SRB
Protocol: The antiproliferative activity of the compounds under investigation was assessed using the Sulforhodamine B (SRB) assay on both 2D cell monolayers and 3D spheroids. For the 2D cell monolayer assay, cells were seeded in 96-well tissue culture plates at a density of 3 × 10^3 cells/well in 100 μL of culture medium. Following overnight incubation in a humidified CO2 incubator, the medium was replaced, and the cells were treated with the investigated compounds in a final volume of 200 μL/well of Earle’s Balanced Salt Solution (EBSS). The cells were then exposed to the tested compounds for 1.5 h under dark conditions (5% CO2, 37 °C) and subsequently irradiated with blue light (420 nm) for 30 min at an intensity of 58 W/m^2. After treatment, the samples were washed with Phosphate-Buffered Saline (PBS) and replenished with 200 μL of culture medium. Following an additional 70-h incubation, the cells were washed with PBS, fixed with trichloroacetic acid at 4 °C for 1 h, and stained with 0.4% SRB dye for 30 min. The stained cells were dissolved with Tris (10 mM), and the cell viability was assessed by measuring the absorbance at 570 nm using an Absorbance Reader (SPARK TECAN, SCHOELLER). […] After the 72-h spheroid formation period, the samples were treated and irradiated as described for the 2D cultures. […] The luminescence signal was detected using the plate reader SPARK (Tecan, Manedorf, Switzerland), and the IC50 values were calculated from the survival curves. All experiments were conducted in triplicate to ensure the reliability and reproducibility of the results. Furthermore, the concentrations of the compounds in the medium during the treatment were verified using Flame Atomic Absorption Spectroscopy (FAAS) or Inductively Coupled Plasma Mass Spectrometry (ICP-MS). […]
drug-free incubation. c IC50 values were determined by SRB assay. d IC50 values were determined by CellTiter-Glo® 3D chemiluminescent assay. e PI - phototoxicity index was calculated as the ratio of IC50 determined under the dark conditions / IC50 determined for 420 […]
models under irradiation conditions.

U87MG spheroids = experiment: Distribution of iridium compounds in Matrigel-embedded spheroids (confocal); conditions: 5 μM, 3 h
Protocol: Spheroids derived from U87MG cells were encapsulated in a Matrigel matrix. The U87MG cells were incubated for 72 h under 3D conditions using ULA 96-well U-shaped plates (Corning) and cultured in DMEM-F12 ham medium supplemented with growth factors conducive to spheroid formation: 2% B27 (Thermo Fisher Scientific Inc., MA, USA), epidermal growth factor (EGF; Sigma-Aldrich, Germany, 20 ng mL^–1), fibroblast growth factor (FGF2; Sigma-Aldrich, Germany, 10 ng mL^–1), and BSA (0.15%). Following the 72-h spheroid formation phase, the samples were embedded in a Matrigel matrix and allowed to gel completely (30 min). Afterward, the spheroids were further cultured for 24 h in confocal Petri dishes (Mattek) with 3D forming medium. Subsequently, the samples were exposed to 5 μM of the tested compounds 3, 4, and 5 for 3 h. The samples were then rinsed, transferred to a fresh 3D forming medium, and visualized using a confocal microscope (Leica CM SP8 SMD, Leica, Germany). Imaging was conducted in defined Z-stacks with a 20 μm step, and fluorescence intensities were captured and analyzed using ImageJ software.

[1] = system: U87MG-RFP spheroids implanted into cerebral organoids; experiment: Glioblastoma intergrowth/spreading area in cerebral organoid-U87MG-RFP spheroid fusion system; conditions: for glioblastoma spreading area, Δ 0h-120h, not irradiated: TMZ 100 μM or Ir4 2 μM for 3 h, no blue light
Protocol: In this study, U87MG-RFP glioblastoma spheroids were preformed over 72 h, implanted into cerebral organoid tissue, and coembedded in Matrigel. […] Samples designated for irradiation were exposed to blue laser light (405 nm, 60 s, 1 mW) and subsequently cultured in drug-free medium for 120 h. Z-stacking confocal imaging and ImageJ analysis quantified the area of glioblastoma spreading (Figure , panels III and IV).
An implant fusion model was established to monitor the distribution of Ir4 within the tumor, represented by the implanted tumorspheres generated from U87MG, and healthy tissue, represented by the hiPSC-derived cerebral organoid. Before the implantation procedure, spheroids derived from U87MG glioblastoma were cultured for 72 h under 3D forming conditions using ULA plates (96-well U-shaped plate, Corning) in DMEM-F12 supplemented with 2% B27, epidermal growth factor (EGF) at 20 ng mL^–1, fibroblast growth factor 2 (FGF2) at 10 ng mL^–1, and BSA (0.15%). Cerebral organoids were generated through a four-step directed differentiation process from human induced pluripotent stem cells (hiPSCs, Gibco). The hiPSCs were cultured on Geltrex matrix (hESC-Qualified, Reduced Growth Factor Basement Membrane Matrix; Gibco) in StemFlex basal medium (DMEM/F12, Ham, 1:1) fully supplemented with StemFlex supplement (Gibco). The preformation of cerebral organoids, involving the formation of embryoid bodies (EBs), was maintained in U-shape ultralow attachment 96-well plates (ULA, Corning) with 9000 hiPSCs per well in fully supplemented Stemdiff Cerebral organoid medium and 10 μM of the rock inhibitor Y27632. The EBs were cultured for 4 days to establish round-shaped EBs with a diameter of approximately 400 μm. Subsequently, 2 EBs per well were transferred to 24-well ULA plates, and differentiation into neural ectoderm was induced for an additional 2 days using the Stemdiff Cerebral Organoid Kit (StemCell Technologies, CA). Following this, early organoids were embedded in the Matrigel matrix (suitable for organoid culture, Corning) and directed toward further differentiation into neuroectoderm. After the initial differentiation phase, early organoids were monitored for the development of optically clear neuroectoderm (characterized by an optically bright, translucent surface) and the formation of large buds of translucent ectoderm that were not radially organized. Postembedding, the organoids were cultured on 6-well ULA plates under continuous orbital shaker agitation (50 rpm). […] The samples were then transferred to confocal Petri dishes containing drug-free cerebral maturation medium and analyzed using a confocal microscope (Leica CM SP5, Leica, Germany). […]

[2] = dark, 70 h drug-free incubation, read-out: IC50 2D Dark
[3] = 30 min blue light 420 nm 58 W m-2, 70 h drug-free, read-out: IC50 2D Irradiated

Cc1ccc(-c2cc3[n+]4c(c2)-c2cccc[n+]2[Ir-3]42([Cl])([c]4cc5ccccc5cc4-c4n(Cc5ccc(C(F)(F)F)cc5)c5ccccc5[n+]42)[n+]2ccccc2-3)cc1.F[P-](F)(F)(F)(F)F [Ir3] was tested, and the “PI (phototoxicity index) 2D” value (U87MG cells) was 45, the IC50 (U87MG cells; [2]) was 30.4 ± 4.3 µM and the IC50 (U87MG cells; [3]) was 0.67 ± 0.08 µM. For the same compound, the distribution within spheroid (U87MG spheroids) was “primarily localized in the outer regions of the spheroids”.
For CCCCn1c2[n+](c3cc(C(=O)OC)ccc31)[Ir-3]13([Cl])([c]4ccccc4-2)[n+]2ccccc2-c2cc(-c4ccc(C)cc4)cc([n+]21)-c1cccc[n+]13.F[P-](F)(F)(F)(F)F [Ir4], the “PI (phototoxicity index) 2D” value (U87MG cells) was 41, the IC50 (U87MG cells; [2]) was 21.3 ± 1.4 µM and the IC50 (U87MG cells; [3]) was 0.52 ± 0.08 µM. For the same compound, the distribution within spheroid (U87MG spheroids) was “most uniform distribution”, the “glioblastoma spreading area, Δ 0h-120h, irradiated” value ([1]; Ir4 2 μM 3 h, 405 nm 60 s 1 mW, 120 h drug-free) was 0.6 fold and the “glioblastoma spreading area, Δ 0h-120h, not irradiated” value ([1]; 120 h drug-free) was 2.1 fold. For the same compound, the “spreading area relative to TMZ” value ([1]; nonirradiated, Ir4 concentration 50 times lower than TMZ) was “four times smaller”.
For Cc1ccc(-c2cc3[n+]4c(c2)-c2cccc[n+]2[Ir-3]42([Cl])([c]4c(ccc5c4OCO5)-c4n(Cc5ccc(C(F)(F)F)cc5)c5ccccc5[n+]42)[n+]2ccccc2-3)cc1.F[P-](F)(F)(F)(F)F [Ir5], the “PI (phototoxicity index) 2D” value (U87MG cells) was 60, the IC50 (U87MG cells; [2]) was 25.3 ± 2.1 µM and the IC50 (U87MG cells; [3]) was 0.42 ± 0.03 µM. For the same compound, the distribution within spheroid (U87MG spheroids) was “primarily localized in the outer regions of the spheroids”.
Cn1nnc2c(C(N)=O)ncn2c1=O [Temozolomide, reference compound] was tested, and the IC50 (U87MG cells; Homo sapiens, U-87 MG, dark, 70 h drug-free incubation, read-out: IC50 2D Dark) was ≥ 100 µM and the “glioblastoma spreading area, Δ 0h-120h, not irradiated” value ([1]; 120 h drug-free) was 8.7 fold.
